Where a name gives a salt, the structure may show the parent alone. Read-outs that look alike come from different tables or passages of the source.
Target: T1, Porcine DPP-IV (Sus scrofa, UniProt P22411)
T1 construct: purchased Sigma-Aldrich Germany
Assay: Assay of DPP-IV enzyme inhibitory activity (spectrophotometric, Gly-Pro-pNA cleavage)
Format: biochemical
Conditions: Porcine DPP-IV, Gly-Pro-pNA substrate, 30° C., mean ± SD of three experiments except compound Nos. 133 & 139, read-out: IC50 (μM) Mean ± SD, inhibitory activity on DPP-IV enzyme activity
Description: Assay of DPP-IV Enzyme Inhibitory Activity.
The assay method is a modified method (as described by Welch et al, 1998) based on spectrophotometric determination of the product formed by penultimate proline cleaving activity of the enzyme.
Assay protocol involves incubation of the enzyme dipeptidyl peptidase IV with the test substance at 30° C. for 30 min followed by addition of this reaction mixture to the substrate Gly-Pro-pNA that was equilibrated at 30° C. for 2 min. The enzyme cleaves the substrate at penultimate proline and releases p-nitroanilide, the optical density of which is measured at 385 nm. The formation of p-nitroanilide will be reduced in the presence of inhibitor. […] The activity of molecule is expressed in terms of % inhibition. At least three different concentrations were tried out for each of the test substances. The percentage inhibitions for each of the concentrations were plotted and an IC50 of the test compound was worked out. The enzyme inhibitory activity of different test compounds were compared based on the IC50 values.
The percentage inhibition % I, is calculated using the formula:
% I=[(1−vi/v0)]*100 where vi and v0 are the Vmax values with and without the test substance, respectively.
Substrate solution: 0.5 mM in 45 mM phosphate buffer
Substrate used: Gly-Pro-p-nitroanilide (Source: Sigma-Aldrich Co. Germany)
3.288 mg substrate in 1 ml 45 mM phosphate buffer was prepared as stock solution. 0.25 ml of this stock solution was diluted to 5 ml to get 0.5 mM substrate solution (90 μl to be added in each well). The stock solution of the substrate was used within three days of preparation.
Enzyme solution: Porcine DPP-IV (Sigma-Aldrich Germany) was used throughout the study. 0.4 mU in 80 μl of Tris. HCl buffer was prepared. Fresh solutions were prepared everyday for the assays.
Various concentrations of inhibitor were used: 0.391 μM, 0.781 μM, and 3.125 μM. Solutions of inhibitor were prepared and used on the same day.
280 μl of enzyme solution (0.4-mU/80 μl in Tris HCl buffer) was added to the eppendorf containing 70 μl solution of inhibitor or vehicle and mixed. This reaction mixture was incubated for 30 min at 30° C. The 96 well plate containing substrate solution was thermally equilibrated in the spectrophotometer for 2 min at 30° C. Later 100 μl of the enzyme-inhibitor pre-incubation solution was added to respective wells in a 96 well plate. Each concentration of the inhibitor was tested in triplicates.
The rate of change in UV absorbance (in presence of various concentrations of the inhibitor) was measured at 385 nm, with respect to wells containing only 0.5 mM substrate in 45 mM phosphate buffer as blank at every 10 min for 2 hours after adding enzyme-inhibitor mixture to wells containing substrate solution.

T1 sequence (P22411 whole entry): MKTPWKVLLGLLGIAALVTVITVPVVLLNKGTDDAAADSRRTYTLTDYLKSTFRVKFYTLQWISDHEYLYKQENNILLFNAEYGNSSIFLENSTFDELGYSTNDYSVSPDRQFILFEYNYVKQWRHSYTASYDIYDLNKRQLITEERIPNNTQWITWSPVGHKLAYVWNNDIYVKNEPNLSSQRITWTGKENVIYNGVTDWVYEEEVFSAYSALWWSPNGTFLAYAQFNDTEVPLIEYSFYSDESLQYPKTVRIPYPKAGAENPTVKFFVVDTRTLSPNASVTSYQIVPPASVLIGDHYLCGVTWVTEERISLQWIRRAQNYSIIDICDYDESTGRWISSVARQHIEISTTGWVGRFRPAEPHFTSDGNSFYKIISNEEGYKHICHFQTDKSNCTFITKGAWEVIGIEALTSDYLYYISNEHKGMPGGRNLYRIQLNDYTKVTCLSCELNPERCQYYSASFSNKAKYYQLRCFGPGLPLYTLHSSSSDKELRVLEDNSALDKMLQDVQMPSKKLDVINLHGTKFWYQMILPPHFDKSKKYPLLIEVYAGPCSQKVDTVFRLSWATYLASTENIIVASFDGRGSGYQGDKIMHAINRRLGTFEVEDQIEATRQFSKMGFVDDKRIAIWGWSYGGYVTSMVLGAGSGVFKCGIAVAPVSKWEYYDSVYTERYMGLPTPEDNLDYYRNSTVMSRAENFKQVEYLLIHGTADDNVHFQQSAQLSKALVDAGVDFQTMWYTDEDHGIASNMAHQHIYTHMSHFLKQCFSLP

SMILES | IC50 | IC50 (trihydrochloride)
N#CC1CSCN1C(=O)CN(N)C1CCCCCC1 (stereo not shown) [Compound No. 28, 3-[1-Oxo-2-((1-Cycloheptyl)-hydrazino)] ethyl-4-cyano thiazolidine trifluoroacetate] | 2.29 ± 0.11 µM | –
N#CC1CSCN1C(=O)CN(N)C1CCN(CC(=O)Nc2ccc(F)c(Cl)c2)CC1 (stereo not shown) [compound 128, 3-[1-oxo-2-(1-(1-(2-oxo-2-(3-chloro-4-fluoro-phenyl)aminoethyl)piperidine-4-yl))hydrazino]ethyl-4-cyanothiazolidine, bis-trifluoroacetate] | 0.342 ± 0.035 µM | –
CC1CCC(C(=O)N2CCC(N(N)CC(=O)N3CSCC3C#N)CC2)CC1 (stereo not shown) [Compound No. 65, 3-[1-Oxo-2-[1-(1-(4-methylcyclohexylcarbonyl)-piperidin-4-yl)]hydrazino]ethyl-4-cyanothiazolidine trifluoroacetate] | 0.87 ± 0.06 µM | –
CN(CC(=O)N1CSCC1C#N)NC1CCN(S(=O)(=O)c2ccc(Cl)cc2)CC1 (stereo not shown) [Compound No. 71, 3-[1-Oxo-2-[1-methyl-2-(1-(4-chlorophenylsulphonyl)-piperidin-4-yl)]-hydrazino]ethyl-4-cyanothiazolidine] | 86.2 ± 5.3 µM | –
CCCC1CCC(N(N)CC(=O)N2CSCC2C#N)CC1 (stereo not shown) [Compound No. 60, 3-[1-Oxo-2-(1-(4-npropylcyclohexyl) hydrazino)]ethyl-4-cyanothiazolidine trifluoro acetate] | 0.69 ± 0.03 µM | –
CC1CCC(NNCC(=O)N2CCCC2C#N)CC1 (stereo not shown) [Compound No. 26, 1-[1-Oxo-2-((4-Methyl)cyclohexyl)hydrazino)]ethyl-2-cyano pyrrolidine trifluoroacetate] | 10 ± 0.79 µM | –
CC(C)(C)C(=O)N1CCC(N(N)CC(=O)N2CSCC2C#N)CC1 (stereo not shown) [Compound No. 76, 3-[1-Oxo-2-(1-(1-(tert-butylcarbonyl)-piperidin-4-yl) hydrazino)]ethyl-4-cyanothiazolidine trifluoroacetate] | 4.15 ± 0.29 µM | –
N#CC1CSCN1C(=O)CN(N)C1CCN(CC(=O)N2CCOCC2)CC1 (stereo not shown) [Compound No. 107, 3-[1-oxo-2-[1-(1-(−2-oxo-2(morpholin-4-yl)ethyl)piperidin-4-yl)]hydrazino]ethyl-4-cyanothiazolidine bis-trifluoroacetate] | 0.525 ± 0.098 µM | –
CCCC1CCC(N(N)CC(=O)N2CSCC2C#N)CC1 (stereo not shown) [Compound No. 64, 3-[1-Oxo-2-(1-(4-npropylcyclohexyl)hydrazino)]ethyl-4-cyanothiazolidine trifluoroacetate] | 0.34 ± 0.07 µM | –
CC(C)(C)OC(=O)NNCC(=O)N1COCC1C#N (stereo not shown) [compound 147, 3-[-oxo-2-(2-ter-butyloxycarbonyl) hydrazino]ethyl-4-cyanooxazolidine] | 150 ± 43 µM | –
N#CC1CCCN1C(=O)CN(N)C1CCCC1 (stereo not shown) [Compound No. 18, 1-[1-Oxo-2-((1-Cyclopentyl)-hydrazino)]ethyl-2-cyano pyrrolidine trifluoroacetate] | 32.1 ± 1.65 µM | –
N#CC1CSCN1C(=O)CN(N)C1CCN(CC(=O)Nc2nc3ccccc3s2)CC1 (stereo not shown) [compound 144, 3-[1-oxo-2-(1-(1-(2-oxo-2-(benzothiazole-2-yl)aminoethyl)piperidine-4-yl)) hydrazine]ethyl-4-cyanothiazolidine, trihydrochloride] | – | 0.167 ± 0.007 µM
CC1CCC(NN(C)CC(=O)N2CSCC2C#N)CC1 (stereo not shown) [Compound No. 69, 3-[1-Oxo-2-(1-methyl-2-(4-methylcyclohexyl) hydrazino)]ethyl-4-cyanothiazolidine] | 69 ± 10.1 µM | –
N#CC1CSCN1C(=O)CN(N)C1CCN(CCOc2ccccc2)CC1 (stereo not shown) [compound 123] | 0.676 ± 0.07 µM | –
N#CC1CCCN1C(=O)CNNC1CCCCC1 (stereo not shown) [Compound No. 34, 1-[1-Oxo-2-(2-cyclohexyl) hydrazino] ethyl-2-cyanopyrrolidine trifluoroacetate] | 30.3 ± 5.5 µM | –
CCNN(CC(=O)N1CSCC1C#N)C1CCC(C)CC1 (stereo not shown) [Compound No. 42, 3-[1-Oxo-2-(1-(4-methylcyclohexyl)-2-ethyl)hydrazino]ethyl-4-cyanothiazolidine trifluoroacetate] | 0.53 ± 0.09 µM | –
N#CC1CSCN1C(=O)CN(N)C1CCC(NCC(=O)Nc2ccc(Cl)cn2)CC1 (stereo not shown) [Compound No. 111, 3-[1-oxo-2-[1-(4-(2-oxo-2-(5-chloropyridin-2-yl)aminoethyl)aminocyclohex-1-yl)]hydrazino]ethyl-4-cyanothiazolidine tris-trifluoroacetate] | 0.563 ± 0.077 µM | –
CCOC(=O)Cc1csc(NC(=O)CN2CCC(N(N)CC(=O)N3CSCC3C#N)CC2)n1 (stereo not shown) [compound 129, 3-[1-oxo-2-(1-(1-(2-oxo-2-(4-ethoxycarbonylmethylthiazole-2-yl)aminoethyl)piperidine-4-yl)) hydrazino]ethyl-4-cyanothiazolidine, tris-trifluoroacetate] | 0.362 ± 0.06 µM | –
Cc1ccc(S(=O)(=O)N2CCC(NN(C)CC(=O)N3CSCC3C#N)CC2)cc1 (stereo not shown) [Compound No. 56, 3-[1-Oxo-2-[1-methyl-2-(1-(4-methylphenylsulphonyl)-piperidin-4-yl)]hydrazino]ethyl-4-cyanothiazolidine trifluoroacetate] | 44.2 ± 1.36 µM | –
CCN(N)CC(=O)N1CCCC1C#N (stereo not shown) [Compound No. 14, 1-[1-Oxo-2-((1-ethyl)hydrazino)]ethyl-2-cyano pyrrolidine trifluoroacetate] | 93.7 ± 5.54 µM | –
CCN(CC)NCC(=O)N1CSCC1C#N (stereo not shown) [Compound No. 13, 1-[1-Oxo-2-((2,2-diethyl)-hydrazino)]ethyl-2-cyano thiazolidine] | 57.1 ± 3.76 µM | –
N#CC1CSCN1C(=O)CN(N)C1CCC(NS(=O)(=O)c2ccc(Cl)cc2)CC1 (stereo not shown) [Compound No. 82] | 0.66 ± 0.1 µM | –
N#CC1CSCN1C(=O)CN(N)C1CCN(CC(=O)Nc2ccccn2)CC1 (stereo not shown) [compound 136, 3-[1-oxo-2-(1-(1-(2-oxo-2-(pyridin-2-yl)aminoethyl)piperidine-4-yl))hydrazino]ethyl-4-cyanothiazolidine, tris-trifluoroacetate] | 0.21 ± 0.004 µM | –
N#CC1CSCN1C(=O)CN(N)C1CCN(S(=O)(=O)c2ccc(Cl)cc2)CC1 (stereo not shown) [Compound No. 62, 3-[1-Oxo-2-[1-(1-(4-chlorophenylsulphonyl)-piperidin-4-yl)]hydrazino]ethyl-4-cyanothiazolidine trifluoroacetate] | 1.54 ± 0.34 µM | –
CC(C)N(N)CC(=O)N1CCCC1C#N (stereo not shown) [Compound No. 12, 1-[1-Oxo-2-((1-(1-methyl)ethyl)hydrazino)]ethyl-2-cyano pyrrolidine trifluoroacetate] | 61.3 ± 4.55 µM | –

Reference: US20040106802A1, “Novel compounds and therapeutic uses thereof” (TORRENT PHARMACEUTICALS LTD., priority 2002, published 2004)
